Results published in publication PMC6584016, “A new lipoxygenase from the agaric fungus Agrocybe aegerita: Biochemical characterization and kinetic properties” (PLoS ONE, 2019).

Target: T1, AaeLOX4 (Cyclocybe aegerita, UniProt A0A4D6T4S4)
T1 construct: gene lox4; codon-optimized gene in pET28a, E. coli BL21(DE3) Gold; HisTrap and gel filtration, tag cleavage not mentioned; predicted 79 kDa
T1 sequence (A0A4D6T4S4 1-710): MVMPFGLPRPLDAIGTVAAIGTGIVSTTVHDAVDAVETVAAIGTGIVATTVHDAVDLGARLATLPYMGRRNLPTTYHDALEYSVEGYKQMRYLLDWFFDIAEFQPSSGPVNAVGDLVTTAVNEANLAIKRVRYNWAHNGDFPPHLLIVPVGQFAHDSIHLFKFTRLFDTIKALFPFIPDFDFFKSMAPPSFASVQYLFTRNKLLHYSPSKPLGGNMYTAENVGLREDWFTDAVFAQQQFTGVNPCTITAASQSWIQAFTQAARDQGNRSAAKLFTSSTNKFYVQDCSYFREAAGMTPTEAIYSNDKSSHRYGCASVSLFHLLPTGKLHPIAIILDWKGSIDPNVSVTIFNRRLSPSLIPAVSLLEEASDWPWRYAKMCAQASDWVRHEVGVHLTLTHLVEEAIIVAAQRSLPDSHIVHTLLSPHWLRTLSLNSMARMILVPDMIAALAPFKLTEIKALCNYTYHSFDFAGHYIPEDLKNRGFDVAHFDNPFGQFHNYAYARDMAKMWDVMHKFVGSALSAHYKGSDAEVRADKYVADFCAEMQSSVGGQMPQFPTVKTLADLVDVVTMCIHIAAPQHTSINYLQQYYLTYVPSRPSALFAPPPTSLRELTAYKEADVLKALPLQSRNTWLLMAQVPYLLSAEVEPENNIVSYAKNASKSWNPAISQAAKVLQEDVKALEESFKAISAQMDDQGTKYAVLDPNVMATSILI
Assay: conjugated diene formation at […] nm; Lineweaver-Burk
Format: biochemical
Settings: 50 mM phosphate pH 7.5, 25 °C; substrate dispersed with Tween 20; 0.025-2 mM

Structure (SMILES)	Km [µM]
CCCCC/C=C\C/C=C\CCCCCCCC(=O)O [linoleic acid]	295
CC/C=C\C/C=C\C/C=C\CCCCCCCC(=O)O [linolenic acid]	634
